According to patent publication US20200087340A1, “LIF/LIFR ANTAGONIST IN ONCOLOGY AND NONMALIGNANT DISEASES” (Evestra, Inc., priority 2018, published 2020):
“Also recorded” adds a separate entry of the source.

Experiments:
[1] = system: various cancer cells lines; assay: Cytotoxicity assays in various cancer cell lines; assay type: cell-based
[2] = system: Mug-Chor cells; assay: 48 hours MTT cell proliferation assay, chordoma; assay type: cell-based
Method: (§1) EC359 was tested two chormoma cell lines (Mug-Chor and U-CH1) for cell viability in 48 hours MTT cell proliferation assay.

[3] = system: U-CH1; assay: 48 hours MTT cell proliferation assay, chordoma; assay type: cell-based; details: UCH1; U-CH1, 48 hours MTT
Method: as §1

[4] = system: High trans-fat fructose diet induced liver fibrosis; assay: High fat diet (HFD) induced liver fibrosis in rats; assay type: in vivo, rat
[5] = system: cancer cells; assay: Colony formation in soft agar (EC359); assay type: cell-based
[6] = system: triple negative breast cancer (TNBC) stem cells; assay: TNBC stem cell inhibition; assay type: cell-based
[7] = system: cancer-associated fibroblasts (CAFs), alpha-SMA; assay: Cytoskeletal disruption / cancer-associated fibroblasts; assay type: cell-based
[8] = system: TNBC xenograft; assay: TNBC xenograft (EC359); assay type: in vivo; details: 1 and 5 mg/kg
From the text: (§2) . Blockade of LIF-LIFR interaction reduced the STAT3 phosphorylation, mTOR and further downstream signaling cascades. […]. Our findings establish EC359 as a novel LIF/LIFR targeting drug with therapeutic perspectives for patients with advanced primary tumors. LIF/LIFR targeting may result in the blockade of JAK-STAT signaling pathway as well as cancer fibroblast associated pro invasive tumor microenvironment in regular as well as therapy resistant tumors

[9] = system: MM51; assay: Murine syngeneic MM51 model; assay type: in vivo; details: 1 and 5 mg/kg
From the text: as §2

[10] = system: FC 1295 and imPSCc-2 organoids; assay: Pancreatic cancer / stellate cell line derived organoid system; assay type: cell-based, Murine
Method: Most solid tumors have extensive stroma that not only facilitates the tumor progression but also impedes the delivery of the chemotherapeutic agents. Due to lack of any in-vitro system, presently it is difficult to evaluate any stroma-targeted therapies. Therefore, we developed an organoid system using labeled pancreatic cancer and stellate cell lines. Murine (FC 1295 and […]-2) cell lines cultured in different combinations were grown as an organoid system using matrigel. The organoids, starting day four were treated with either gemcitabine or EC359, a novel mifepristone derived steroidal cytotoxic agent that targets tumor stroma, or both in combination. qRT-PCR analysis of activated stroma signature genes was performed on the mRNA isolated from different treatment groups. H&E, immunohistochemistry, and western blot analysis were performed to further validate our findings. […] Our novel cell line derived organoid model can be utilized for fast, and inexpensive evaluation of stroma-targeted therapies.

[11] = system: breast and ovarian cancer cells; assay: Combination with HDAC inhibitor, colony formation; assay type: cell-based
From the text: Therapy resistance is a major hurdle in cancer chemo/targeted therapy. The role of LIF/LIFR signaling in inducing stemness and hypoxia is well established in different cancers. […] FIG. 16A depicts colony formation of cancer cells under various conditions. […] FIG. 16B depicts the effect of EC359 alone and in combination with SAHA on STAT 3 phosphorylation. FIG. 16C depicts the effect of EC359 alone and in combination with SAHA on induced apoptosis. FIGS. 17A and 17B depicts the effect of EC359 alone and in combination with SAHA on the growth of TNBC patient derived tumors. […] The combination of EC359 and SAHA provided a greater reduction than either […] alone.

[12] = system: S. typhimurium TA98, TA100, TA1535 and E. coli WP2 uvrA + E. coli WP2[pKM101] strains; assay: Mutagenicity testing
[13] = molecular target: hERG membrane (Homo sapiens, UniProt Q12809); assay: Cardiotoxicity assessment (hERG), fluorescence polarization assay; assay type: binding
[14] = system: Cytochrome P450 (1A2, 2C9, 2C19, 2D6, 3A4); assay: CYP inhibition using human liver microsomes; assay type: in vitro ADME; details: human liver microsomes (1A2, 2C9, 2C19, 2D6, 3A4)
[15] = Hepatocyte stability; assay type: in vitro ADME; details: Human
[16] = Hepatocyte stability; assay type: in vitro ADME; details: Mouse
[17] = Hepatocyte stability; assay type: in vitro ADME; details: Rat
[18] = Hepatocyte stability; assay type: in vitro ADME; details: Dog
[19] = Microsomal stability; assay type: in vitro ADME; details: Human
[20] = Microsomal stability; assay type: in vitro ADME; details: Mouse
[21] = Microsomal stability; assay type: in vitro ADME; details: Rat
[22] = Microsomal stability; assay type: in vitro ADME; details: Dog
[23] = Single dose MTD; assay type: in vivo; details: 10, 25, 50 and 100 mg/kg
[24] = PK study in Mouse; assay type: in vivo
[25] = Plasma protein binding; assay type: in vitro ADME; details: human
[26] = Plasma protein binding; assay type: in vitro ADME; details: mouse
[27] = Plasma protein binding; assay type: in vitro ADME; details: rat
[28] = Plasma protein binding; assay type: in vitro ADME; details: dog
[29] = Plasma stability; assay type: in vitro ADME; details: Human
[30] = Plasma stability; assay type: in vitro ADME; details: Mouse
[31] = Plasma stability; assay type: in vitro ADME; details: Rat
[32] = Plasma stability; assay type: in vitro ADME; details: Dog
[33] = Solubility: pION, kinetic, thermodynamic; assay type: physicochemical
[34] = Metabolite identification; assay type: in vitro ADME
[35] = system: Caco2; assay: Caco2-permeability & efflux transporter substrate activity; assay type: in vitro ADME
[36] = molecular target: T1, GR (Homo sapiens, UniProt P04150); assay: Off-target binding study (CEREP screen); details: no binding up to, read-out: IC 50 of binding, GR
T1 construct: CEREP (contract screen, per earlier reading)

[37] = molecular target: T2, hERG (Homo sapiens, UniProt Q12809); assay: Off-target binding study (CEREP screen); details: no binding up to, read-out: IC 50 of binding, hERG
T2 construct: CEREP (contract screen, per earlier reading)

[38] = molecular target: LIF (Homo sapiens, UniProt P15018); assay: biochemical
[39] = PK study in Rat
[40] = system: ID-8 ovarian syngeneic tumor; assay: ID-8 ovarian syngeneic murine tumor model
From the text: CD3+T cells: T cell co-receptor helps to activate both the cytotoxic T cell (CD8+ naive T cells) and also T helper cells (CD4+ naive T cells). • 2. Tumor infiltrating leukocytes • 3. CD19 is widely expressed during all phases of B cell development until terminal differentiation into plasma cells. • 4. […] M1 macrophages: produced along with inflammatory reaction. […] CD8-positive T cells: are a critical subpopulation of MEW class I-restricted T cell and are mediators of adaptive immunity.

Sequence of LIF (P15018 23-202): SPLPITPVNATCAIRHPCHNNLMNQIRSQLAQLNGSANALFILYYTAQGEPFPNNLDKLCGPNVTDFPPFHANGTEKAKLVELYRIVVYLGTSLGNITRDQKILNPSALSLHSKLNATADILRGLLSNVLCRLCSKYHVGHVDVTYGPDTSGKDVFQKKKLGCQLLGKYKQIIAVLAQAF
T1 sequence (P04150 whole entry): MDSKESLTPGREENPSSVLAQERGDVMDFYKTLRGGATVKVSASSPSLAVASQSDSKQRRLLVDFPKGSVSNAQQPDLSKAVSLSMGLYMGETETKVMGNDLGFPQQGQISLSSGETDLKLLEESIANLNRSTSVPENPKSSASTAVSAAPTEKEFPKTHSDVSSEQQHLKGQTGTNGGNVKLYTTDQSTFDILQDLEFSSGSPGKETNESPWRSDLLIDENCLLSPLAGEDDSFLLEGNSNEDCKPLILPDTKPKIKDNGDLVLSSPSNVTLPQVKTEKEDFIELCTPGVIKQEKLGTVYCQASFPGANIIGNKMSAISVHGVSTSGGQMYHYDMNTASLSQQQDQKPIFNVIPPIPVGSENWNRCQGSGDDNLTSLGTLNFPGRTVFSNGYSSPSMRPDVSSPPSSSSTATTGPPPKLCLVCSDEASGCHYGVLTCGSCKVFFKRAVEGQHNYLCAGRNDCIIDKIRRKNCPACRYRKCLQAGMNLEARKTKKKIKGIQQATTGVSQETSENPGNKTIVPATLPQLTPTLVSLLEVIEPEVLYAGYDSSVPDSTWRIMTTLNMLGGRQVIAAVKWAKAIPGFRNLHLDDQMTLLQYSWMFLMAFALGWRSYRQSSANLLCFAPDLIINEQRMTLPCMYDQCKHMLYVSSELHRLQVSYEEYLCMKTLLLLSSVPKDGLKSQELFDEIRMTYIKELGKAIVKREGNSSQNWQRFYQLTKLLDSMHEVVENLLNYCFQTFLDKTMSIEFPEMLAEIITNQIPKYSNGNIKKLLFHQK
T2 sequence (Q12809 whole entry): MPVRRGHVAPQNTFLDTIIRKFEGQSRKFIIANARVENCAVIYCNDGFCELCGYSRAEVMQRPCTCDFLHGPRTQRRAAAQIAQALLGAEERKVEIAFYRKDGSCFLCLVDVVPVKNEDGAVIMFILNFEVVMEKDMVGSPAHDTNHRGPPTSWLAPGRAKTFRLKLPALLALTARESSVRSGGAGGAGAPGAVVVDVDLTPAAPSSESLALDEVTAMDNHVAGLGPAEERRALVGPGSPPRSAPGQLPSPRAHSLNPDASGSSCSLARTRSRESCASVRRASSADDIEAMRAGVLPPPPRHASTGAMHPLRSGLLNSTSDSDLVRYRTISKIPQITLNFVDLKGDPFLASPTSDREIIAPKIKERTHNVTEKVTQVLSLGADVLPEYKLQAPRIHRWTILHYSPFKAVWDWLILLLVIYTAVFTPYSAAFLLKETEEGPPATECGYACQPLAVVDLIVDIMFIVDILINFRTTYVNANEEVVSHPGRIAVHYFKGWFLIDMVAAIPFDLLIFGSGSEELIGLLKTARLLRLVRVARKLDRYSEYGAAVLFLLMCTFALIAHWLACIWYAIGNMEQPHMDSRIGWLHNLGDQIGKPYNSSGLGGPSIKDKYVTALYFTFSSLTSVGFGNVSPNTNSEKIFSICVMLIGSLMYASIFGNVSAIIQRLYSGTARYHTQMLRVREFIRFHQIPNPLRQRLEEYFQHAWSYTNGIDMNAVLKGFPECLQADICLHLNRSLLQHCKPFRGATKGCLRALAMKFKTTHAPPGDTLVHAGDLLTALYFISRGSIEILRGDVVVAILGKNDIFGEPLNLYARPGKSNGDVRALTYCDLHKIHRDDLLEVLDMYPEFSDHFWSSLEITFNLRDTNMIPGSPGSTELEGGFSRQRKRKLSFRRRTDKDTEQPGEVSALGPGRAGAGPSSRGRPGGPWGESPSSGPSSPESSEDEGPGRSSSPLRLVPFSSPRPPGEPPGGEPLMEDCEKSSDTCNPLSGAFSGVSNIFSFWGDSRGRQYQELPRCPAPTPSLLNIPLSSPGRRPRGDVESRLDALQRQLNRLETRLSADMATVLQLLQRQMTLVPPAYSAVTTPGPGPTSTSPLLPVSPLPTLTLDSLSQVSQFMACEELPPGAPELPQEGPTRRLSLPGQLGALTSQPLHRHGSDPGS
Sequence of hERG membrane (Q12809 whole entry): as above

For `C#CC(F)(F)[C@]1(O)CC[C@H]2[C@@H]3CCC4=CC(=O)CCC4=C3[C@@H](c3ccc(-c4c(C)cc(C)cc4C)cc3)C[C@@]21C` [EC359, 17α-(1,1-difluoro-2-propyn-1-yl)-17β-hydroxy-11β-[4-p-(2,4,6-trimethylphenyl)phenyl]estra-4,9-dien-3-one], the “cytotoxicity (IC50's) in cytotoxicity assays” value [1] was “low nano-molar range”, the IC50 [2] was 85 nM and the IC50 [3] was 140 nM. For the same compound, the “liver damage (HFD induced steatohepatisis)” value ([4]; after 4 months of HFD, rats) was “significantly reduced”, the “fibrosis, Picrosirius red staining of liver tissue” value ([4]; intermediary and higher dose) was “Fibrosis was evident” and the “efficacy in rat models of liver fibrosis” value ([4]; rat models of liver fibrosis) was “showed efficacy”. For the same compound, the “fibrosis, Picrosirius red staining of liver tissue” value ([4]; rats) was “minimal fibrosis”, the “formation of colonies in soft agar” value [5] was “blocked formation of colonies” and the TNBC stem cells [6] was “inhibited”. For the same compound, the “cytoskeletal disruption, targeting CAFs” value [7] was “inhibition of alpha-SMA but not beta-tubulin”, the tumor burden [8] was “dose dependently reduced tumor burden” and the tumor burden [9] was “dose dependently reduced tumor burden”. The “expression of markers of activated stroma (western blot)” value [10] was “reduced the expression of markers of activated stroma including alpha-SMA, and vimentin”, the “relative reduction in GFP fluorescence” value ([10]; as compared to control) was 46% and the “combination with HDAC inhibitor” value [11] was “works synergistically”. The Mutagenicity testing [12] was “No mutagenicity”, the “Cardiotoxicity assessment (hERG)” value [13] was “No liability” and the CYP inhibition [14] was 2D6 inhibition. The Hepatocyte stability [15] was “Human & Mouse-moderate”, the Hepatocyte stability [16] was “Human & Mouse-moderate” and the Hepatocyte stability [17] was “Rat & Dog-low”. The Hepatocyte stability [18] was “Rat & Dog-low”, the Microsomal stability [19] was “Human & Mouse-moderate” and the Microsomal stability [20] was “Human & Mouse-moderate”. The Microsomal stability [21] was “Rat & Dog-low”, the Microsomal stability [22] was “Rat & Dog-low” and the “Single dose MTD” value [23] was “No toxicity observed”. For the same compound, the oral bioavailability ([24]; Mouse) was “Orally bioavailable”, the “Mouse PK (p.o)” value ([24]; p.o) was 1.0 h and the fraction unbound [25] was 0.0002. It also gave a fraction unbound [26] of 0.0037, a fraction unbound [27] of 0.0011 and a fraction unbound [28] of 0.0017. For the same compound, the “Plasma stability (% remaining at 60 min)” value [29] was 113.92%, the “Plasma stability (% remaining at 60 min)” value [30] was 104.91% and the “Plasma stability (% remaining at 60 min)” value [31] was 108.64%. For the same compound, the “Plasma stability (% remaining at 60 min)” value [32] was 105.61%, the solubility [33] was under 10 µg/mL and the Major metabolic pathway [34] was “Major metabolic pathway-Phase I”. The glucuronide metabolites ([34]; low CL in UDPGA) was “metabolism; No glucuronide”, the Caco2-permeability [35] was “Low permeable” and the “efflux transporter substrate activity” value [35] was “No efflux transporter”. The IC50 [36] was over 10000 nM, the IC50 [37] was over 30000 nM and the Kd [38] was over 5000 nM. The “Rat PK (iv)” value ([39]; iv) was 6 h, the oral bioavailability ([39]; rat) was “high oral bioavailability; also recorded: Orally bioavailable” and the half-life ([39]; rats) was “long half-life”. For the same compound, the “tumor specific infiltration of lymphocytes and macrophages” value ([40]; ID-8 Ovarian cancer model) was “enhanced”, the M1 macrophages ([40]; ID-8 model) was “increased” and the “tumor specific accumulation of CD3+T, CD4+T and CD8+T cells” value ([40]; ID-8 model) was “increased”. The tumor burden ([40]; ID-8 ovarian syngeneic murine tumor model) was “significantly reduced” and the “combination with PD-L1 treatment” value ([40]; ovarian cancer ID-8 syngeneic mice model) was “synergizes PD-L1 treatment”.
